System: G. Stearothermophilus
[1] = 36-m^3 room and 110-m^3 carpeted rooms, initial 40-55% RH, 20-25 C, biological indicators in Tyvek pouches

Protocol: The application of condensed vapor cloud generated biocide dispersion was tested in a 36-m^3 single room and in 110-m^3 two-room model (family room+bathroom). The single room was tiled floor and two-room model had wall-to-wall carpet. With initial room humidity in the range 40-55% RH and 20-25 C, decontamination tests were carried out using biological indicators (BI). Biological indicator test disks were prepared by Mesa Labs. The Biological indicators are inoculated with 4-log, 5-log and 6-log populations of G. Stearothermophilus. The BI's are in Tyvek pouches. […] The condensed vapor generator was calibrated with scaling of room size, mass concentration, carpet/tilled floor, and initial RH and temperature.

OO [HP, hydrogen peroxide]
HP concentration above which 5-log kills were observed [1]: above 0.7 g/m^3
HP concentration above which 6-log kill was observed [1]: above 1.8 g/m^3
kill time (HP mass injection rate of −50 g/min): 10 to 15 min

— patent US9533064B1, “Device and method for decontamination, disinfection, and sanitation” (Nanomist Systems, LLC, priority 2013, dated 2017)
